Data from patent US20200046731A1, “BI[…] STATE (17- β)-HYDROXY-4-ANDROSTEN-3-ONE ESTERS” (Lipocine Inc., priority 2014, published 2020).

Assay: Serum testosterone responder analysis after oral dosing (Table 3)
Assay type: in vivo, human
Description: Some of the dosage forms of compositions described herein comprising or prepared from (17-β)-3-Oxoandrost-4-en-17-yl tridecanoate were administered to human subjects as a single dose of the esters to subjects. Serial blood samples were drawn at predetermined time (e.g., t=0, 12, 24, etc.) and analyzed for testosterone concentration using a validated HPLC-MS/MS analytical method. The Cmax, Cavg t1-t2, Tmax and AUCt1-t2 are calculated for testosterone in the serum of the subjects. Pharmacokinetic and statistical analyses are performed on the data obtained from the subjects. The pharmacokinetic parameters are defined as follows: • AUCt1-t2: The area under the serum concentration versus time curve, from time t1 (in hours) to time t2 (in hours) measurable concentration of the administered drug, as calculated by the linear trapezoidal method. […] This represents the average serum testosterone level over a period starting from time 0 (zero) hours to […] post-administration of dose. It should also be noted that Cavg t0-t24 is also referred to as simply “Cavg” in this invention. • Cavg t0-t12: The average serum concentration of testosterone obtained by dividing the AUCt0-t12 value by 12. This represents the average serum testosterone level over a period starting from time 0 (zero) hours to […] post-administration of dose. • Cavg t12-24: The average serum concentration of testosterone obtained by dividing the AUCt12-t24 value by 12. This represents the average serum testosterone level over the second half of the 24-hours post-administration of dose period; i.e., from a period starting from time 12 hours to time 24 hours post-administration of dose.

[1] = starting dose 100 (±50) mg T equivalent QD or BID
[2] = starting dose 300 (±50) mg T equivalent QD
[3] = starting dose 350 (±100) mg T equivalent BID
[4] = starting dose 1000 (±200) mg T equivalent QD or BID

In the case of `CCCCCCCCCCCCC(=O)O[C@H]1CC[C@H]2[C@@H]3CCC4=CC(=O)CC[C@]4(C)[C@H]3CC[C@]12C` [(17-β)-3-Oxoandrost-4-en-17-yl tridecanoate], the “% Responders with Cave t0-t24 (ng/dL) 300-1140” value (“% Responders with Cave t0-t24” for short) [1] was 50-65%, the “% Responders with Cmax (ng/dL) 1800-2500” value [1] was 0-5% and the “% Responders with Cmax (ng/dL) >2500” value [1] was 0-1%. For the same compound, the “% Responders with Cmax (ng/dL) ≤1500” value [1] was 100%, the “% Responders with Cmax (ng/dL) 1800-2500” value [2] was 0-5% and the “% Responders with Cmax (ng/dL) >2500” value [2] was 0-1%. The “% Responders with Cmax (ng/dL) ≤1500” value [2] was 100%, the “% Responders with Cave t0-t24” value (starting dose 300 (±50) mg T equivalent QD, 12-20% EAPI formulation) was 100% and the “% Responders with Cave t0-t24” value [3] was 100%. The “% Responders with Cmax (ng/dL) 1800-2500” value [3] was 0-5%, the “% Responders with Cmax (ng/dL) >2500” value [3] was 0-1% and the “% Responders with Cmax (ng/dL) ≤1500” value [3] was 100%. For the same compound, the “% Responders with Cave t0-t24” value [4] was 100%, the “% Responders with Cmax (ng/dL) 1800-2500” value [4] was 20-30% and the “% Responders with Cmax (ng/dL) >2500” value [4] was 60-80%. For the same compound, the “% Responders with Cmax (ng/dL) ≤1500” value [4] was 0%.
